Data: patent US8084502B2, “Use of agmatine for protection of retinal ganglion cells” (priority 2007, dated 2011)

Key:
Format in all cases: cell-based, rat
RGC-5 [1] = assay: LDH assay, TNF-α-induced cell death; conditions: 100 μM of agmatine; for LDH release: 50 ng/mL of TNF-α
Procedure: (§1) The RGC-5 cell line, which is an RGC line developed from post-natal Sprague-Dawley rats, was grown in modified DMEM (Gibco) supplemented with 10% of heat inactivated fetal bovine serum (Gibco) and 100 U/mL of penicillin and 100 μg/mL of streptomycin (Gibco). The cells were passaged every 2 to 3 days and incubated at 37° C. in 5% of CO2 and air. At cultivation, the cells had the same morphology. For all experiments, cells were used at 80% of confluence.
(§2) After washing twice with PBS, cells were cultured in serum-free DMEM and treated with either 10 or 50 ng/mL of recombinant rat TNF-α (Chemicon) for up to 48 hours. The control cells were not exposed to TNF-α. 100 μM of agmatine was added to the culture medium at the start of injury as indicated.
Cell viability was quantified by measuring the amounts of LDH released from the injured cells after TNF-α administration. LDH release is expressed as a value relative to the value of 100, which is the maximum LDH release that occurs after freezing each culture at −70° C. overnight and then rapidly thawing, thus inducing nearly complete cell damage. All experiments were performed in at least quadruplicate, and repeated at least eight times using cell cultures derived from different platings.

RGC-5 [2] = assay: Hoechst 33342 and PI staining after TNF-α
Procedure: as §1, §2
Apoptotic or necrotic cell death was characterized by double staining cells with Hoechst 33342 and PI. Cells were stained with 10 μg/mL of Hoechst 33342 and 10 μg/mL of PI at 37° C. for 30 minutes. After being washed twice with PBS, cells were imaged with a digital camera attached to a fluorescence microscope.

RGC-5 [3] = assay: Annexin-V assay (flow cytometry), TNF-α-induced apoptosis; conditions: 50 ng/mL of TNF-α
Procedure: as §1, §2
The percentage of cells actively undergoing apoptosis was determined by flow cytometry using the Annexin V-FITC Apoptosis Detection Kit (BD Biosciences, Cat no. 556547) according to the manufacturer's instructions. Briefly, cells were harvested and resuspended in binding buffer (10^6 cells/mL). 10^5 cells were mixed with 5 μL of annexin V-FITC and 5 μL of PI. After incubating at room temperature for 15 minutes in the dark, analysis was performed by flow cytometry.

**Q.** Which results are given for N=C(N)NCCCCN [agmatine]?
**A.** LDH release (RGC-5 [1]; 24 hours): 5.91±0.86%; LDH release (RGC-5 [1]; 48 hours): 8.14±2.43%; TNF-α-induced LDH release (RGC-5 [1]; all P<0.001): significantly inhibited; RGC loss (Hoechst-positive / PI-positive cells) (RGC-5 [2]; 50 ng/mL of TNF-α for 48 hours, 100 μM of agmatine): RGC loss was prevented; effect on culture (Hoechst-positive / PI-labeled cells) (RGC-5 [2]; only 100 μM of agmatine, no TNF-α, 48 hours): did not have a significant effect; proportion of apoptotic cells (RGC-5 [3]; 12 hour exposure, agmatine 100 μM): no significant difference; proportion of apoptotic cells (RGC-5 [3]; 24 hours of exposure, 100 μM of agmatine): significant decrease in apoptotic cells
